# Tested on: 475296-252-R-J1-PDC spheroid viability
# Test: Anticancer human tumor 475296-252-R-J1-PDC patient-derived rectal carcinoma cell line growth inhibition [PI3K]
# Conditions: spheroids with HUVEC and MSC; for IC50: curve of first compound; for viability, T/C: stronger effect = lower value
# In short: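 Tumor cells grown as multi-cell spheroids with HUVEC endothelial cells and MSC fibroblast-like stroma were treated with targeted agents combined with inavolisib, alpelisib, duvelisib or copanlisib. Doses fell in half-log steps from near clinical Cmax, else from 10 microM. Viability was measured.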
# 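Further: spheroids exposed to agents for seven days before readout.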
smiles,measurement,setting,value
CNC(=O)c1ccc(N2C(=S)N(c3ccc(C#N)c(C(F)(F)F)c3)C(=O)C2(C)C)cc1F + Cc1nc(NC(=O)N2CCCC2C(N)=O)sc1-c1ccnc(C(C)(C)C(F)(F)F)c1,IC50,second compound 0.0316 µM,> 10000 nM
same,IC50,second compound 0.1 µM,> 10000 nM
same,IC50,second compound 0.316 µM,> 10000 nM
same,IC50,second compound 1 µM,> 10000 nM
same,IC50,second compound 3.16 µM,> 10000 nM
same,IC50,second compound 10 µM,> 10000 nM
same,"viability, T/C","second compound 0.0316 µM, first compound 0.0316 µM",101%
same,"viability, T/C","second compound 0.0316 µM, first compound 0.1 µM",88.1%
same,"viability, T/C","second compound 0.0316 µM, first compound 0.316 µM",98.8%
same,"viability, T/C","second compound 0.0316 µM, first compound 1 µM",87.7%
same,"viability, T/C","second compound 0.0316 µM, first compound 3.16 µM",95.7%
same,"viability, T/C","second compound 0.0316 µM, first compound 10 µM",95.2%
same,"viability, T/C","second compound 0.1 µM, first compound 0.0316 µM",102%
same,"viability, T/C","second compound 0.1 µM, first compound 0.1 µM",91.8%
same,"viability, T/C","second compound 0.1 µM, first compound 0.316 µM",99.6%
same,"viability, T/C","second compound 0.1 µM, first compound 1 µM",86.6%
same,"viability, T/C","second compound 0.1 µM, first compound 3.16 µM",111%
same,"viability, T/C","second compound 0.1 µM, first compound 10 µM",114%
same,"viability, T/C","second compound 0.316 µM, first compound 0.0316 µM",92.2%
same,"viability, T/C","second compound 0.316 µM, first compound 0.1 µM",101%
same,"viability, T/C","second compound 0.316 µM, first compound 0.316 µM",86.1%
same,"viability, T/C","second compound 0.316 µM, first compound 1 µM",104%
same,"viability, T/C","second compound 0.316 µM, first compound 3.16 µM",101%
same,"viability, T/C","second compound 0.316 µM, first compound 10 µM",108%
same,"viability, T/C","second compound 1 µM, first compound 0.0316 µM",90.5%
same,"viability, T/C","second compound 1 µM, first compound 0.1 µM",104%
same,"viability, T/C","second compound 1 µM, first compound 0.316 µM",95.6%
same,"viability, T/C","second compound 1 µM, first compound 1 µM",102%
same,"viability, T/C","second compound 1 µM, first compound 3.16 µM",89.8%
same,"viability, T/C","second compound 1 µM, first compound 10 µM",109%
same,"viability, T/C","second compound 3.16 µM, first compound 0.0316 µM",81.1%
same,"viability, T/C","second compound 3.16 µM, first compound 0.1 µM",104%
same,"viability, T/C","second compound 3.16 µM, first compound 0.316 µM",92.3%
same,"viability, T/C","second compound 3.16 µM, first compound 1 µM",98.1%
same,"viability, T/C","second compound 3.16 µM, first compound 3.16 µM",108%
same,"viability, T/C","second compound 3.16 µM, first compound 10 µM",97.5%
same,"viability, T/C","second compound 10 µM, first compound 0.0316 µM",80.8%
same,"viability, T/C","second compound 10 µM, first compound 0.1 µM",89.5%
same,"viability, T/C","second compound 10 µM, first compound 0.316 µM",104%
same,"viability, T/C","second compound 10 µM, first compound 1 µM",88%
same,"viability, T/C","second compound 10 µM, first compound 3.16 µM",98.9%
same,"viability, T/C","second compound 10 µM, first compound 10 µM",90.7%
Cn1cnc2c(F)c(Nc3ccc(Br)cc3Cl)c(C(=O)NOCCO)cc21 + Cc1nc(NC(=O)N2CCCC2C(N)=O)sc1-c1ccnc(C(C)(C)C(F)(F)F)c1,IC50,second compound 0.0316 µM,> 3000 nM
same,IC50,second compound 0.1 µM,> 3000 nM
same,IC50,second compound 0.316 µM,2990 nM
same,IC50,second compound 1 µM,760 nM
same,IC50,second compound 3.16 µM,463 nM
same,IC50,second compound 10 µM,77 nM
same,"viability, T/C","second compound 0.0316 µM, first compound 0.00949 µM",102%
same,"viability, T/C","second compound 0.0316 µM, first compound 0.03 µM",81.9%
same,"viability, T/C","second compound 0.0316 µM, first compound 0.0949 µM",85.7%
same,"viability, T/C","second compound 0.0316 µM, first compound 0.3 µM",75.7%
same,"viability, T/C","second compound 0.0316 µM, first compound 0.949 µM",76.6%
same,"viability, T/C","second compound 0.0316 µM, first compound 3 µM",61.8%
same,"viability, T/C","second compound 0.1 µM, first compound 0.00949 µM",91.7%
same,"viability, T/C","second compound 0.1 µM, first compound 0.03 µM",78.7%
same,"viability, T/C","second compound 0.1 µM, first compound 0.0949 µM",93.2%
same,"viability, T/C","second compound 0.1 µM, first compound 0.3 µM",73.2%
same,"viability, T/C","second compound 0.1 µM, first compound 0.949 µM",74.6%
same,"viability, T/C","second compound 0.1 µM, first compound 3 µM",58%
same,"viability, T/C","second compound 0.316 µM, first compound 0.00949 µM",89.4%
same,"viability, T/C","second compound 0.316 µM, first compound 0.03 µM",89.8%
same,"viability, T/C","second compound 0.316 µM, first compound 0.0949 µM",73.4%
same,"viability, T/C","second compound 0.316 µM, first compound 0.3 µM",72.9%
same,"viability, T/C","second compound 0.316 µM, first compound 0.949 µM",64.3%
same,"viability, T/C","second compound 0.316 µM, first compound 3 µM",48.3%
same,"viability, T/C","second compound 1 µM, first compound 0.00949 µM",79.9%
same,"viability, T/C","second compound 1 µM, first compound 0.03 µM",89.3%
same,"viability, T/C","second compound 1 µM, first compound 0.0949 µM",69%
same,"viability, T/C","second compound 1 µM, first compound 0.3 µM",63.9%
same,"viability, T/C","second compound 1 µM, first compound 0.949 µM",47%
same,"viability, T/C","second compound 1 µM, first compound 3 µM",35.9%
same,"viability, T/C","second compound 3.16 µM, first compound 0.00949 µM",75.8%
same,"viability, T/C","second compound 3.16 µM, first compound 0.03 µM",73.6%
same,"viability, T/C","second compound 3.16 µM, first compound 0.0949 µM",66.2%
same,"viability, T/C","second compound 3.16 µM, first compound 0.3 µM",59.9%
same,"viability, T/C","second compound 3.16 µM, first compound 0.949 µM",36.4%
same,"viability, T/C","second compound 3.16 µM, first compound 3 µM",23.8%
same,"viability, T/C","second compound 10 µM, first compound 0.00949 µM",83.9%
same,"viability, T/C","second compound 10 µM, first compound 0.03 µM",67%
same,"viability, T/C","second compound 10 µM, first compound 0.0949 µM",45.6%
same,"viability, T/C","second compound 10 µM, first compound 0.3 µM",28.2%
same,"viability, T/C","second compound 10 µM, first compound 0.949 µM",18.7%
same,"viability, T/C","second compound 10 µM, first compound 3 µM",5.93%
